Source: patent publication US20140171357A1, “VANCOMYCIN DERIVATIVES” (Seachald Pharmaceuticals, Inc., priority 2011, published 2014)
Converted amounts (≈) assume the structure as drawn.

Assays:
[1] = tested on: VanB vancomycin-resistant E. faecalis (12); experiment: MIC broth microdilution, VanB E. faecalis; conditions: E. faecalis, VanB (12)
[2] = tested on: VanB vancomycin-resistant E. faecium (10); experiment: MIC broth microdilution, VanB E. faecium; conditions: E. faecium, VanB (10)
VanC enterococci (22) = experiment: MIC broth microdilution, vanC-carrying enterococci; conditions: VanC enterococci (22)
[3] = tested on: β-hemolytic streptococci (23); experiment: MIC broth microdilution, β-hemolytic streptococci; conditions: for fold more potent than teicoplanin and daptomycin / fold more potent than vancomycin: β-hemolytic streptococci; for MIC 50% / MIC 90%: β-hemolytic streptococci (23), MHB + lysed horse blood
[4] = tested on: vancomycin-susceptible E. faecalis (23); experiment: MIC broth microdilution, vancomycin-susceptible E. faecalis; conditions: E. faecalis, vancomycin-susceptible (23)
S. pneumoniae (22) = experiment: MIC broth microdilution, S. pneumoniae; conditions: for MIC 50% / MIC 90%: S. pneumoniae (22), MHB + lysed horse blood
[5] = tested on: vancomycin-susceptible E. faecium (21); experiment: MIC broth microdilution, vancomycin-susceptible E. faecium; conditions: E. faecium, vancomycin-susceptible (21)
[6] = tested on: Staphylococcus aureus (65 strains); experiment: MIC broth microdilution, S. aureus all isolates; conditions: S. aureus (65), all resistance subsets
[7] = tested on: heterogeneous VISA (hVISA, 10); experiment: MIC broth microdilution, hVISA
[8] = tested on: methicillin-susceptible S. aureus (MSSA, 22); experiment: MIC broth microdilution, MSSA; conditions: MSSA (22)
[9] = tested on: VanA vancomycin-resistant E. faecium (10); experiment: MIC broth microdilution, VanA E. faecium; conditions: E. faecium, VanA (10)
[10] = tested on: vancomycin-resistant S. aureus (VRSA, 6); experiment: MIC broth microdilution, VRSA
S. aureus ATCC 25923 = experiment: Neutropenic murine thigh infection model; conditions: for AUCc-t (AUC difference between control and treated animals): 24 h time kill
[11] = tested on: vancomycin-intermediate S. aureus (VISA, 5); experiment: MIC broth microdilution, VISA
[12] = tested on: Staphylococcus epidermidis (43 strains); experiment: MIC broth microdilution, S. epidermidis; conditions: S. epidermidis (43)
[13] = tested on: methicillin-resistant S. aureus (MRSA, 22); experiment: MIC broth microdilution, MRSA; conditions: MRSA (22)
[14] = tested on: VanA vancomycin-resistant E. faecalis (11); experiment: MIC broth microdilution, VanA E. faecalis; conditions: E. faecalis, VanA (11)
[15] = 1 mg/kg single intraperitoneal dose
[16] = 4 mg/kg single intraperitoneal dose
[17] = 16 mg/kg single intraperitoneal dose

CCCCCCCCCCNCCNC1(C)CC(OC2C(Oc3c4cc5cc3Oc3ccc(cc3Cl)C(O)C3NC(=O)C(NC(=O)C5NC(=O)C(CC(N)=O)NC(=O)C(NC(=O)C(CC(C)C)NC)C(O)c5ccc(c(Cl)c5)O4)c4ccc(O)c(c4)-c4c(cc(O)c(CNCCOCCOCCN)c4O)C(C(=O)O)NC3=O)OC(CO)C(O)C2O)OC(C)C1O (stereo not shown) [Compound 3]
MIC 50% [1]: 0.06 µg/mL (≈ 0.0335 µM)
MIC 90% [1]: 0.12 µg/mL (≈ 0.0669 µM)
MIC 50% [2]: 0.015 µg/mL (≈ 0.00837 µM)
MIC 90% [2]: 0.015 µg/mL (≈ 0.00837 µM)
MIC 50% (VanC enterococci (22)): 0.06 µg/mL (≈ 0.0335 µM)
MIC 90% (VanC enterococci (22)): 0.12 µg/mL (≈ 0.0669 µM)
fold more potent than teicoplanin and daptomycin [3]: two- to four
fold more potent than vancomycin [3]: four- to eight
MIC 50% [3]: 0.03 µg/mL
MIC 90% [3]: 0.12 µg/mL
MIC 50% [4]: 0.06 µg/mL (≈ 0.0335 µM)
MIC 90% [4]: 0.06 µg/mL (≈ 0.0335 µM)
fold more potent than linezolid (S. pneumoniae (22); S. pneumoniae): 32 fold
MIC 50% (S. pneumoniae (22)): 0.015 µg/mL
MIC 90% (S. pneumoniae (22)): 0.03 µg/mL
MIC 50% [5]: 0.015 µg/mL (≈ 0.00837 µM)
MIC 90% [5]: 0.03 µg/mL (≈ 0.0167 µM)
MIC 50% [6]: 0.03 µg/mL (≈ 0.0167 µM)
MIC 90% [6]: 0.12 µg/mL (≈ 0.0669 µM)
MIC 50% [7]: 0.06 µg/mL (≈ 0.0335 µM)
MIC 90% [7]: 0.06 µg/mL (≈ 0.0335 µM)
MIC 50% [8]: 0.03 µg/mL (≈ 0.0167 µM)
MIC 90% [8]: 0.06 µg/mL (≈ 0.0335 µM)
MIC 50% [9]: 2 µg/mL (≈ 1.12 µM)
MIC 90% [9]: 4 µg/mL (≈ 2.23 µM)
MIC 50% [10]: 1 µg/mL (≈ 0.558 µM)
Max Kill (maximum decrease from initial infection level) (S. aureus ATCC 25923; [15]): −0.2 Log10 CFU/thigh
AUCc-t (AUC difference between control and treated animals) (S. aureus ATCC 25923; [15]): 28.4 (Log10 CFU/thigh)/hr
Max Kill (maximum decrease from initial infection level) (S. aureus ATCC 25923; [16]): −0.41 Log10 CFU/thigh
AUCc-t (AUC difference between control and treated animals) (S. aureus ATCC 25923; [16]): 32.3 (Log10 CFU/thigh)/hr
Max Kill (maximum decrease from initial infection level) (S. aureus ATCC 25923; [17]): −1.08 Log10 CFU/thigh
AUCc-t (AUC difference between control and treated animals) (S. aureus ATCC 25923; [17]): 52.9 (Log10 CFU/thigh)/hr
organism reduction across doses (S. aureus ATCC 25923; 1, 4 and 16 mg/kg intraperitoneal): organism reduction over the entire dose range
in vivo efficacy against S. aureus (in words) (S. aureus ATCC 25923; neutropenic soft tissue infection model): bactericidal characteristics and prolonged in vivo activity
MIC 50% [11]: 0.12 µg/mL (≈ 0.0669 µM)
MIC 50% [12]: 0.03 µg/mL (≈ 0.0167 µM)
MIC 90% [12]: 0.03 µg/mL (≈ 0.0167 µM)
MIC 50% [13]: 0.03 µg/mL (≈ 0.0167 µM)
MIC 90% [13]: 0.06 µg/mL (≈ 0.0335 µM)
MIC 50% [14]: 4 µg/mL (≈ 2.23 µM)
MIC 90% [14]: 8 µg/mL (≈ 4.46 µM)

CNC(CC(C)C)C(=O)NC1C(=O)NC(CC(N)=O)C(=O)NC2C(=O)NC3C(=O)NC(C(=O)NC(C(=O)NCCOCCOCCN(C)C)c4cc(O)cc(O)c4-c4cc3ccc4O)C(O)c3ccc(c(Cl)c3)Oc3cc2cc(c3OC2OC(CO)C(O)C(O)C2OC2CC(C)(NCc3ccc(-c4ccc(Cl)cc4)cc3)C(O)C(C)O2)Oc2ccc(cc2Cl)C1O (stereo not shown) [Compound 10]
MIC 50% [1]: 0.12 µg/mL (≈ 0.0664 µM)
MIC 90% [1]: 0.25 µg/mL (≈ 0.138 µM)
MIC 50% [2]: 0.06 µg/mL (≈ 0.0332 µM)
MIC 90% [2]: 0.06 µg/mL (≈ 0.0332 µM)
MIC 50% (VanC enterococci (22)): 0.12 µg/mL (≈ 0.0664 µM)
MIC 90% (VanC enterococci (22)): 0.25 µg/mL (≈ 0.138 µM)
fold more potent than teicoplanin and daptomycin [3]: two- to four
fold more potent than vancomycin [3]: four- to eight
MIC 50% [3]: 0.03 µg/mL
MIC 90% [3]: 0.12 µg/mL
MIC 50% [4]: 0.12 µg/mL (≈ 0.0664 µM)
MIC 90% [4]: 0.12 µg/mL (≈ 0.0664 µM)
MIC 50% (S. pneumoniae (22)): 0.03 µg/mL
MIC 90% (S. pneumoniae (22)): 0.06 µg/mL
MIC 50% [5]: 0.06 µg/mL (≈ 0.0332 µM)
MIC 90% [5]: 0.06 µg/mL (≈ 0.0332 µM)
MIC 50% [6]: 0.06 µg/mL (≈ 0.0332 µM)
MIC 90% [6]: 0.25 µg/mL (≈ 0.138 µM)
MIC 50% [7]: 0.12 µg/mL (≈ 0.0664 µM)
MIC 90% [7]: 0.12 µg/mL (≈ 0.0664 µM)
MIC 50% [8]: 0.06 µg/mL (≈ 0.0332 µM)
MIC 90% [8]: 0.06 µg/mL (≈ 0.0332 µM)
MIC 50% [9]: 1 µg/mL (≈ 0.553 µM)
MIC 90% [9]: 2 µg/mL (≈ 1.11 µM)
MIC 50% [10]: 4 µg/mL (≈ 2.21 µM)
Max Kill (maximum decrease from initial infection level) (S. aureus ATCC 25923; [15]): 0.43 Log10 CFU/thigh
AUCc-t (AUC difference between control and treated animals) (S. aureus ATCC 25923; [15]): 10.7 (Log10 CFU/thigh)/hr
Max Kill (maximum decrease from initial infection level) (S. aureus ATCC 25923; [16]): −0.06 Log10 CFU/thigh
AUCc-t (AUC difference between control and treated animals) (S. aureus ATCC 25923; [16]): 22.4 (Log10 CFU/thigh)/hr
Max Kill (maximum decrease from initial infection level) (S. aureus ATCC 25923; [17]): −0.02 Log10 CFU/thigh
AUCc-t (AUC difference between control and treated animals) (S. aureus ATCC 25923; [17]): 25.6 (Log10 CFU/thigh)/hr
MIC 50% [11]: 0.25 µg/mL (≈ 0.138 µM)
MIC 50% [12]: 0.03 µg/mL (≈ 0.0166 µM)
MIC 90% [12]: 0.06 µg/mL (≈ 0.0332 µM)
MIC 50% [13]: 0.06 µg/mL (≈ 0.0332 µM)
MIC 90% [13]: 0.12 µg/mL (≈ 0.0664 µM)
MIC 50% [14]: 4 µg/mL (≈ 2.21 µM)
MIC 90% [14]: 8 µg/mL (≈ 4.42 µM)

CNC(CC(C)C)C(=O)NC1C(=O)NC(CC(N)=O)C(=O)NC2C(=O)NC3C(=O)NC(C(=O)NC(C(=O)O)c4cc(O)c(CNCCOCCOCCN)c(O)c4-c4cc3ccc4O)C(O)c3ccc(c(Cl)c3)Oc3cc2cc(c3OC2OC(CO)C(O)C(O)C2OC2CC(C)(NCc3ccc(-c4ccc(Cl)cc4)cc3)C(O)C(C)O2)Oc2ccc(cc2Cl)C1O (stereo not shown) [Compound 11]
MIC 50% [1]: 0.25 µg/mL (≈ 0.138 µM)
MIC 90% [1]: 0.25 µg/mL (≈ 0.138 µM)
MIC 50% [2]: 0.06 µg/mL (≈ 0.0331 µM)
MIC 90% [2]: 0.12 µg/mL (≈ 0.0663 µM)
MIC 50% (VanC enterococci (22)): 0.25 µg/mL (≈ 0.138 µM)
MIC 90% (VanC enterococci (22)): 0.5 µg/mL (≈ 0.276 µM)
MIC 50% [3]: 0.06 µg/mL
MIC 90% [3]: 0.12 µg/mL
MIC 50% [4]: 0.25 µg/mL (≈ 0.138 µM)
MIC 90% [4]: 0.25 µg/mL (≈ 0.138 µM)
MIC 50% (S. pneumoniae (22)): 0.06 µg/mL
MIC 90% (S. pneumoniae (22)): 0.06 µg/mL
MIC 50% [5]: 0.06 µg/mL (≈ 0.0331 µM)
MIC 90% [5]: 0.12 µg/mL (≈ 0.0663 µM)
MIC 50% [6]: 0.12 µg/mL (≈ 0.0663 µM)
MIC 90% [6]: 0.5 µg/mL (≈ 0.276 µM)
MIC 50% [7]: 0.12 µg/mL (≈ 0.0663 µM)
MIC 90% [7]: 0.12 µg/mL (≈ 0.0663 µM)
MIC 50% [8]: 0.12 µg/mL (≈ 0.0663 µM)
MIC 90% [8]: 0.12 µg/mL (≈ 0.0663 µM)
MIC 50% [9]: 2 µg/mL (≈ 1.1 µM)
MIC 90% [9]: 4 µg/mL (≈ 2.21 µM)
MIC 50% [10]: 4 µg/mL (≈ 2.21 µM)
Max Kill (maximum decrease from initial infection level) (S. aureus ATCC 25923; [15]): 0.59 Log10 CFU/thigh
AUCc-t (AUC difference between control and treated animals) (S. aureus ATCC 25923; [15]): 12.9 (Log10 CFU/thigh)/hr
Max Kill (maximum decrease from initial infection level) (S. aureus ATCC 25923; [16]): 0.46 Log10 CFU/thigh
AUCc-t (AUC difference between control and treated animals) (S. aureus ATCC 25923; [16]): 10.8 (Log10 CFU/thigh)/hr
Max Kill (maximum decrease from initial infection level) (S. aureus ATCC 25923; [17]): −0.39 Log10 CFU/thigh
AUCc-t (AUC difference between control and treated animals) (S. aureus ATCC 25923; [17]): 34.7 (Log10 CFU/thigh)/hr
MIC 50% [11]: 0.25 µg/mL (≈ 0.138 µM)
MIC 50% [12]: 0.06 µg/mL (≈ 0.0331 µM)
MIC 90% [12]: 0.06 µg/mL (≈ 0.0331 µM)
MIC 50% [13]: 0.12 µg/mL (≈ 0.0663 µM)
MIC 90% [13]: 0.12 µg/mL (≈ 0.0663 µM)
MIC 50% [14]: 4 µg/mL (≈ 2.21 µM)
MIC 90% [14]: 8 µg/mL (≈ 4.42 µM)
